Legend:
[1] = system: ovariectomized white mice; test: Bone mineral densitometer test, therapeutic effect on osteoporosis; format: in vivo; details: test group
Description: After ovariectomy, female white mice weighing about 250 g were bred for four weeks. After checking the onset of osteoporosis in the mice, each of the mice was orally administered with 220 μl of the Compound 1 dissolved in 30 ml water for four weeks.
BMD measurement was performed before ovariectomy and every week for eight weeks after ovariectomy, using a bone mineral densitometer, XCT 540 Research SA made in Germany.
After anesthetizing the mice being bred in cages by intraperitoneal injection of a mixture of Ketamine HCl (ketara 10 mg/kg) and 2% xylazine HCl (Roupun 0.15 ml/kg), BMD measurement was made at a voxel size of 0.1×0.1 mm^2 and threshold values of 280 mg/cm^2 for cancellous bone and 500 mg/cm^2 for compact bone. The analysis sites at the proximal tibias were determined by Scout scans (10 mm/sec), and BMD was measured at three slices at the determined sites by CT scans (7 mm/sec). BMD measurement was performed twice or more at the same site every week during eight weeks after ovariectomy.

[2] = system: osteoclast progenitor cells; test: Formation of TRAP-positive multinucleated cells from osteoclast progenitors; format: cell-based, mice; details: concentration not given, control 132
Description: (§1) In order to investigate the effects of the Compound 1 on differentiation and activity of osteoclasts, when differentiation of osteoclast progenitors was induced, the activity of Tartrate-resistant acid phosphatase (TRAP) as an osteoclastic marker enzyme was investigated, and, when differentiated osteoclasts were cultured on calcium phosphate-coated plates (OAAS, OCT Inc.), resorption activity (formation of resorption pits) were measured.
(§2) First, bone marrow cells were isolated, as follow. After sacrificing 7-9 week female mice by cervical dislocation, femur and tibia were excised aseptically while removing attached soft tissues. After cutting both ends of long bones, 1 ml of an enzyme solution, containing 0.1% collagenase (Gibco), 0.05% trypsin and 0.5 mM EDTA (Gibco), was injected to the bone marrow cavity at one end using a syringe with a 26-guage needle, and bone marrow was then collected. After shaking the recovered bone marrow for 30 min, bone marrow cells were collected, and cultured in α-minimum essential medium (α-MEM) supplemented with 10% FBS for 24 hrs. […]
Osteoclasts are derived from hematopoietic cells belonging to the monocyte/macrophage lineage originating in bone marrow. […] The formed TRAP-positive multinucleated cells containing three or more nuclei were counted as osteoclasts, and the counted cell number was compared to that of a control not treated with the Compound 1.

[3] = system: MG-63 osteoblasts; test: Proliferation of MG-63 osteoblasts (3H-thymidine incorporation); format: cell-based, human; details: concentration not given
Excerpt: In the following tests, three kinds of cell lines were used. The human osteosarcoma cell lines, MG-63 (ATCC No. CRL-1427) and HOS (ATCC No. CRL-1543), and mouse muscle C2C12 muscle cells (ATCC No. CRL-1772) were purchased from ATCC (American Type Culture Collection, Rockville, USA), and cultured in Dulbecco's modified Eagle's medium (DMEM) supplemented with 10% fetal bovine serum (FBS).
In order to indirectly evaluate cytotoxicity of the Compound 1 and investigate effect of the Compound 1 naturally extracted on obsteoblast proliferation, proliferation of MG-63 osteoblasts was investigated by measuring the amount of ^3H-thymidine incorporated into cellular DNA upon DNA replication. The cells were aliquotted onto 24-well plates at a density of 2×10^4 cells per well. The next day, after exchanging culture medium to medium containing 1% FBS, the cells were treated with the compound 1 serially diluted at various concentrations and further cultured for 48 hrs. Four hours before finishing the culture of 48 hrs, ^3H-thymidine was added to the medium in an amount of 3 μCi per well. The cells were washed with phosphate buffer, and treated with 5% trichloroacetic acid (TCA) pre-cooled on ice. Each of the separated TCA-insoluble fractions was dissolved in 0.1 M NaOH. With a portion of each fraction, ^3H-thymidine uptake by the cells was measured using a liquid scintillation counter.

[4] = system: osteoclasts; test: Resorption activity of osteoclasts on calcium phosphate-coated plates (resorption pit area); format: cell-based, mice; details: concentration not given
Description: as §1, §2
The differentiated osteoclasts were cultured on calcium phosphate-coated plates (OAASTM, OCT, Korea) in order to evaluate resorption activity of the cells. […] After washing again with distilled water and drying the plates, the area of formed resorption pits was calculated by means of an Image Pro Plus software. […]

[5] = listed as compound prepared in Example 1

## O=Cc1ccc(CO)o1 [Compound 1, 5-hydroxymethylfuran-2-carboxyaldehyde]
[1]; Week 1 after ovariectomy (before administration), control −3
  Change in BMD, %: −2.9%
[1]; Week 3 after ovariectomy (before administration), control −15
  Change in BMD, %: −14%
[1]; Week 4 after ovariectomy (start of oral 220 μl administration), control −19
  Change in BMD, %: −17%
[1]; Week 7 after ovariectomy, oral 220 μl from week 4, control −25.9
  Change in BMD, %: −19%
[2]
  Number of TRAP-positive multinucleated cells: 77
[2]; [5]
  Number of TRAP-positive multinucleated cells: remarkably reduced
[3]
  Proliferation rate of osteoblasts compared to control: over 105%
[3]; [5]
  Proliferation rate of osteoblasts compared to control: ≥ 105%
[4]
  Area of resorption pits compared to control: about 50%
[4]; [5]
  Area of resorption pits compared to control: inhibit bone resorption activity of osteoclasts
